Experimental data reported in patent US8211894B2, “Heteroarylalkyl-8-azabicyclo[3.2.1]octane compounds as mu opioid receptor antagonists” (Theravance, Inc., priority 2007, dated 2012).
Read-outs that look alike come from different tables or passages of the source.

Legend:
human mu opioid receptor [1] = biological target: T1, human mu opioid receptor (Homo sapiens, UniProt P35372); assay: Human mu GTP-Eu nucleotide exchange assay (agonist mediated activation, CHO-K1 membranes); type: biochemical; conditions: bound GTP-Eu relative to DAMGO (IA=100); read-out: intrinsic activity (IA), expressed as a percentage
T1 construct: host or cells: CHO-K1
T1 sequence (P35372 whole entry): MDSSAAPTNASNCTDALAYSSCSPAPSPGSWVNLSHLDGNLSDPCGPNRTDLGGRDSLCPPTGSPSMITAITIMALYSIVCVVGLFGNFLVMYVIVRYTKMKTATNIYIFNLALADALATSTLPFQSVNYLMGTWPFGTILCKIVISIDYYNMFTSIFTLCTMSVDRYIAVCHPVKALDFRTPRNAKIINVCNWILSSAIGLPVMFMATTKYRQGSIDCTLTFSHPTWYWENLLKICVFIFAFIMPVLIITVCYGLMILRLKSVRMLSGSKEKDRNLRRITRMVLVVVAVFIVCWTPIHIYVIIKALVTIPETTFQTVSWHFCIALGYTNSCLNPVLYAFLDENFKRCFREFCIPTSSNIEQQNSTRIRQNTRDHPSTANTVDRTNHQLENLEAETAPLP

human mu opioid receptor [2] = biological target: T1, human mu opioid receptor; assay: Radioligand binding assay, human mu opioid receptor ([3H]-Diprenorphine displacement)
[3] = tested on: loperamide-induced delayed gastric emptying; assay: Rat gastric emptying assay (reversal of loperamide-induced delayed gastric emptying); type: in vivo; conditions: administered orally, loperamide 1 mg/kg s.c., gastric emptying model
Protocol: Assay 3: Rat Model of In Vivo Efficacy In this assay the efficacy of test compounds was evaluated in a model of gastrointestinal transit, which evaluates peripheral activity. This study was approved by the Institutional Animal Care and Use Committee at […]. and conformed to the Guide for the Care and Use of Laboratory Animals published by the National Academy of Sciences (©1996). a. Rat Gastric Emptying Assay Test compounds were evaluated in the rat gastric emptying assay to determine their ability to reverse loperamide-induced delayed gastric emptying. […] The administration of test compound was followed by subcutaneous administration of loperamide at a dose of 1 mg/kg or vehicle. Five minutes post loperamide or vehicle administration, a non-nutritive, non-absorbable charcoal meal was administered via oral gavage and animals were allowed free access to water for the sixty minute duration of the experiment. […] Gastric weight was then determined after removal of the ligatures. b. Data Analysis and Results Data was analyzed using the GraphPad Prism Software package (GraphPad Software, Inc., San Diego, Calif.). Percent reversal curves were constructed by non-linear regression analysis using the sigmoidal dose response (variable slope) model and best-fit ID50 values were calculated. […]

[4] = [3H]-Diprenorphine 0.5 nM, CHO-K1 membranes, read-out: pKi at the human mu opioid receptor (converted)

| SMILES | Emax (human mu opioid receptor [1]) [%] | Ki (human mu opioid receptor [2]) [nM] | ID50, dose required for 50% reversal of the effects of loperamide [3] [mg/kg] | Ki (human mu opioid receptor [2]; [4]) [nM] |
| --- | --- | --- | --- | --- |
| NC(=O)c1cccc([C@H]2C[C@H]3CC[C@@H](C2)N3Cc2cn(C3CCCCC3)nn2)c1 [Example 1, 3-endo-[8-(1-Cyclohexyl-1H-[1,2,3]-triazol-4-ylmethyl)-8-azabicyclo[3.2.1]oct-3-yl]benzamide] | -4 | 0.0501 | 0.13 |  |
| NC(=O)c1cccc([C@H]2C[C@H]3CC[C@@H](C2)N3Cc2cn(C3CCC(F)(F)CC3)nn2)c1 [Example 4, 3-endo-{8-[1-(4,4-Difluorocyclohexyl)-1H-1,2,3-triazol-4-ylmethyl]-8-azabicyclo[3.2.1]oct-3-yl}benzamide] | 0 | 0.1 | 0.25 |  |
| CCCc1cn(CCN2[C@@H]3CC[C@H]2C[C@@H](c2cccc(C(N)=O)c2)C3)nn1 [Example 8, 3-endo-{8-[2-(4-Propyl-[1,2,3]-triazol-1-yl)-ethyl]-8-aza-bicyclo[3.2.1]oct-3-yl}benzamide] | -4 |  |  | 0.0794 |
| NC(=O)c1cccc([C@H]2C[C@H]3CC[C@@H](C2)N3CCCn2cc(-c3ccc(F)cc3F)nn2)c1 [Example 9, 3-endo-(8-{3-[4-(2,4-Difluorophenyl)-[1,2,3]-triazol-1-yl]-propyl}-8-azabicyclo[3.2.1]oct-3-yl)benzamide] | -1 |  |  | 0.0501 |
| NC(=O)c1cccc([C@H]2C[C@H]3CC[C@@H](C2)N3Cc2cncn2Cc2ccccc2)c1 [Example 11, 3-endo-[8-(3-Benzyl-1H-imidazol-4-ylmethyl)-8-aza-bicyclo[3.2.1]oct-3-yl]-benzamide] | 6 |  |  | 0.631 |
| CC(C)Cc1nc(CCCN2[C@@H]3CC[C@H]2C[C@@H](c2cccc(C(N)=O)c2)C3)no1 [Example 14, 3-endo-{8-[3-(5-Isobutyl-1,2,4-oxadiazol-3-yl)-propyl]-8-aza-bicyclo[3.2.1]oct-3-yl}benzamide] | -11 |  |  | 1.58 |
